Results as given in patent publication US12576127B2, “Fibroblast binding agents and use thereof” (Orionis Biosciences, Inc., priority 2018, dated 2026).

Tested on: B16BL6 cells
Test: B16BL6 tumor model (Example 8)
Assay type: in vivo, mouse
Settings: p.l. days 7-15, FIGS. 14A-B
Method: Mice were maintained in pathogen-free conditions in a temperature-controlled environment with 12/12 hour light/dark cycles and received food and water ad libitum. Female C57BL/6J mice (Charles River Laboratories, Saint-Germain sur l'Arbresle, France) were inoculated with B16BL6 or MC38 or Panc02 cells, at the age of 8 weeks, using a 30G insulin syringe, in 50 μl suspension, on the shaved flank of briefly sedated mice (using 4% isoflurane). B16BL6 cells are a murine melanoma cell line that are typically used as a model for human skin cancers with increased resistance to doxorubicin. MC38 cells are derived from a murine colon adenocarcinoma and are typically used as a model for human colon cancers. Panc02 cells are derived from a murine pancreatic ductal adenocarcinoma and are typically used as a model for human pancreatic cancers.
All tumor treatments were done perilesionally (p.l.), which is s.c. at the tumor border, starting at day 7 after tumor inoculation. Mice received FAP-AFN or FAP-WTmIFN treatments on days 7, 8, 9, 10, 12, 13, 14 and 15. Control mice were treated with PBS on the same days. FAP-AFN or FAP-VVTmIFN were given about […] (1.8 mg/kg). […]

SMILES: COc1cccc2c1C(=O)c1c(O)c3c(c(O)c1C2=O)C[C@@](O)(C(=O)CO)C[C@@H]3O[C@H]1C[C@H](N)[C@H](O)[C@H](C)O1 [doxorubicin]
- tumor growth: tumor stasis at best, but no tumor regression
